Reference: article PMC11949107, “Polyunsaturated fatty acids and their endocannabinoid-related metabolites activity at human TRPV1 and TRPA1 ion channels expressed in HEK-293 cells” (PeerJ, 2025)
Values joined by “and” are separate entries in the source; they are usually repeats but may differ in a detail not shown here. Equal values may be shown once.

How the values were obtained:
human TRPV1 = target: T1, human TRPV1 (Homo sapiens, UniProt Q8NER1); assay: Calcium 5 dye [Ca]i assay in HEK-293 Flp-In T-REx cells expressing TRPV1 (agonist response); type: cell-based; conditions: for Change in Ca5 fluorescence, individual experiments (CRC raw data): TRPV1 cells
T1 construct: Life Technologies (cells); host or cells: Flp-In T-REx HEK-293
T1 sequence (Q8NER1 whole entry): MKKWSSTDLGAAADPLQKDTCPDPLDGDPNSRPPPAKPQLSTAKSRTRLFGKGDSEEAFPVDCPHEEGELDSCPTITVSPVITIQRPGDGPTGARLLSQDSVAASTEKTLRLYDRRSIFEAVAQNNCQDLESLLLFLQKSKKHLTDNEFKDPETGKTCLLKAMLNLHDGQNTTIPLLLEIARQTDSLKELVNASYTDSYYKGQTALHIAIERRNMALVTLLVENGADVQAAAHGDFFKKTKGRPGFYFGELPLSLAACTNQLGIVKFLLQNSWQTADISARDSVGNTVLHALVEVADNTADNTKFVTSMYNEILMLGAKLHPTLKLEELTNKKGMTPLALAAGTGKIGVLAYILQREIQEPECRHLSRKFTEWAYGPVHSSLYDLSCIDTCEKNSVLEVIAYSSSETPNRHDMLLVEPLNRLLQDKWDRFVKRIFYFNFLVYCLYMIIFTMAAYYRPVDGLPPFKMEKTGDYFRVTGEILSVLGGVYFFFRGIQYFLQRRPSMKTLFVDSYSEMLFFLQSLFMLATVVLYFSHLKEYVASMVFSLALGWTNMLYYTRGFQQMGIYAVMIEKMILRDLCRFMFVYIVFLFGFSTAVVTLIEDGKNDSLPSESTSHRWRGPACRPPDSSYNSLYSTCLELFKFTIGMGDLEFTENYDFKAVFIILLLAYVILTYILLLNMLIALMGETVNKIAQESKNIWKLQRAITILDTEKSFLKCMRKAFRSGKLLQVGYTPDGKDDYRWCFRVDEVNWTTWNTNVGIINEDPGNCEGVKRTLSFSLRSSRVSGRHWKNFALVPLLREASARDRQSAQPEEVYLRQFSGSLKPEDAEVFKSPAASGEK
Experimental: (§1) The cells were incubated in a 5% CO2 humidified atmosphere at 37 °C. Upon reaching approximately 90% confluence in 75 cm^2 flasks, they were trypsinized and transferred to poly-D-lysine coated 96-well plates (Corning, Castle Hill, NSW, Australia) in L-15 medium supplemented with 1% FBS, 100 U penicillin and 100 µg streptomycin ml^−1 (1% P/S), and 15 mM glucose (80 µL volume per well). After an overnight incubation (maximum of 16 h) in humidified room air at 37 °C, TRPV1 and TRPA1 receptor expression was induced 4 h before experimentation by adding to each well 10 µL tetracycline solution to a final concentration of 1 µg ml^−1.
(§2) Intracellular calcium [Ca]i levels were assessed using the calcium 5 kit from Molecular Devices (# R8186, Sunnyvale, CA, USA) on a FlexStation 3 Microplate Reader (Molecular Devices, Sunnyvale, CA, USA). […] Probenecid (cat # 50027; Biotium) which helps to prevent expulsion of calcium indicator from the cells was added to a final concentration of 1.25 mM. 90 µL of the dye were loaded into each well of the plate and incubated for 1 h before reading in the FlexStation 3 at 37 °C. Fluorescence was recorded every 2 s (λ excitation = 485 nm, λ emission = 525 nm) for 5 min. After 1 min of baseline recording, 20 µL of the drug, dissolved in HBSS with 1% dimethyl sulfoxide (DMSO) (cat # D2650; Sigma-Aldrich, Melbourne, Australia) was added (final DMSO concentration was 0.1% in well).
(§3) The response to agonists was expressed as a percentage change from the average baseline measurement taken for 60s before adding drug. Changes in fluorescence resulting from the addition of solvent were subtracted before normalization to baseline. Concentration–response curves (CRC), Emax and EC50 values were determined using a three-parameter logistic equation (GraphPad Prism, San Diego, CA, USA). […] Potencies were expressed as pEC50, which is the negative log of EC50 in moles per litre (Molar). Where appropriate, unpaired Student’s t-test were used to compare the responses of individual compounds in different conditions, while a one-way ANOVA followed by Dunnett’s multiple comparisons test was used to assess potential differences in responses elicited by a range of compounds. P < 0.05 was considered statistically significant.

human TRPA1 = target: T2, human TRPA1 (Homo sapiens, UniProt O75762); assay: Calcium 5 dye [Ca]i assay in HEK-293 Flp-In T-REx cells expressing TRPA1 (agonist response); type: cell-based; conditions: for Change in Ca5 fluorescence, individual experiments (CRC raw data): TRPA1 cells
T2 construct: Life Technologies (cells); host or cells: Flp-In T-REx HEK-293
T2 sequence (O75762 whole entry): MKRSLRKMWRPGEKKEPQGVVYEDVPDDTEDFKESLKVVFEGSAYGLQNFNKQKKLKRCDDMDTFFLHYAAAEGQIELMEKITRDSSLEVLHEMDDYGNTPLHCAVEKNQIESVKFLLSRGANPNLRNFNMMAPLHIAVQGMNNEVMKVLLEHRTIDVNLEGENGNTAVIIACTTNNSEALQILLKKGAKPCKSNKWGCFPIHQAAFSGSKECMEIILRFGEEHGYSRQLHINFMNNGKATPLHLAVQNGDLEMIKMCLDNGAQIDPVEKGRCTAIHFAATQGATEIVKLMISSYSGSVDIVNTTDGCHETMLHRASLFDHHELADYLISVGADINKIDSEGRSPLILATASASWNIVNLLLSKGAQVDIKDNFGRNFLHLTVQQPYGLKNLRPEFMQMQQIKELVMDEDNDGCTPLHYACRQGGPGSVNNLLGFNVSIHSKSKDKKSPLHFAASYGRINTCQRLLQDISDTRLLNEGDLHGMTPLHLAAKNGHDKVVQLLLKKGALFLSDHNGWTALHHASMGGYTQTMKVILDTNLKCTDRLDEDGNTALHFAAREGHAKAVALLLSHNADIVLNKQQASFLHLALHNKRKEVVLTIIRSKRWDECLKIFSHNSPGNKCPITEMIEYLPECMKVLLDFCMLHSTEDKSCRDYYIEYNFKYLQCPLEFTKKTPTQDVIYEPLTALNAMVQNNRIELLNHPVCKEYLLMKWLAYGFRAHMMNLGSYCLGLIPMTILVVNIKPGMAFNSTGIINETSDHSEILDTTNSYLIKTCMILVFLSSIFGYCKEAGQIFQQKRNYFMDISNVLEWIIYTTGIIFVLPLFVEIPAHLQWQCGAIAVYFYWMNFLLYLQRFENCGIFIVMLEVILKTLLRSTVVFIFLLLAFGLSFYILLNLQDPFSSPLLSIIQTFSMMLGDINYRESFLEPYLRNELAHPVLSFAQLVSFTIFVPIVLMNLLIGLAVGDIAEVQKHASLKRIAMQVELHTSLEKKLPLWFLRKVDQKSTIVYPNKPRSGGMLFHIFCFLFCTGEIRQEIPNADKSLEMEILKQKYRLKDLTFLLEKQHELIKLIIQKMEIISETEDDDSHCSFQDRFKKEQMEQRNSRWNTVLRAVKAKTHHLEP
Experimental: as §1, §2, §3

HEK-293 EV cells = assay: Calcium 5 dye [Ca]i assay in HEK-293 empty vector (EV) cells; type: cell-based, human; conditions: 10 µM; HEK-293 EV cells; percentage of predrug baseline
Experimental: as §1
Intracellular calcium [Ca]i levels were assessed using the calcium 5 kit from Molecular Devices (# R8186, Sunnyvale, CA, USA) on a FlexStation 3 Microplate Reader (Molecular Devices, Sunnyvale, CA, USA). […] 90 µL of the dye were loaded into each well of the plate and incubated for 1 h before reading in the FlexStation 3 at 37 °C. […] After 1 min of baseline recording, 20 µL of the drug, dissolved in HBSS with 1% dimethyl sulfoxide (DMSO) (cat # D2650; Sigma-Aldrich, Melbourne, Australia) was added (final DMSO concentration was 0.1% in well).
as §3

CC/C=C\C/C=C\C/C=C\C/C=C\C/C=C\C/C=C\CCC(=O)NCCO [DHEA, docosahexaenoyl ethanolamide]
Elevation of [Ca]i in HEK-293 TRPV1 cells compared with HEK-293 EV cells (human TRPV1; 10 µM): significantly greater | Change of Ca5 fluorescence, Mean ± SEM, TRPV1 (10 µM) (human TRPV1; 10 µM, HEK-293 TRPV1 cells, percentage of predrug baseline): 266 ± 51 % | Maximal TRPV1 response compared with the highest concentration of capsaicin (human TRPV1; 30 µM vs capsaicin 10 µM): did not differ | pEC50 ± SEM TRPV1 (human TRPV1; HEK-293 TRPV1 cells, EC50 in molar): 5 ± 0.2 | Emax ± SEM % TRPV1 (30 µM) (human TRPV1; highest tested concentration (30 µM) or derived from concentration-response curves (DHEA, AEA, NADA, capsaicin)): 439 ± 81% | Change in Ca5 fluorescence, individual experiments (CRC raw data) (human TRPV1; log concentration -4.52288 (M)): 421.157 and 266.746 and 225.074 and 238.504 and 226.816 and 459.662 | Change in Ca5 fluorescence, individual experiments (CRC raw data) (human TRPV1; log concentration -5 (M)): 358.299 and 237.035 and 372.804 and 59.1046 and 202.763 and 364.608 | Change in Ca5 fluorescence, individual experiments (CRC raw data) (human TRPV1; log concentration -5.52288 (M)): 143.051 and 24.824 and 40.8645 and 14.285 and 22.6333 and 69.1812 | Change in Ca5 fluorescence, individual experiments (CRC raw data) (human TRPV1; log concentration -6 (M)): 82.6736 and 2.152 and 3.016 and 2.309 and 4.337 and 4.334 | Change in Ca5 fluorescence, individual experiments (CRC raw data) (human TRPV1; log concentration -6.52288 (M)): 7.224 and 2.186 and 3.68 and 2.567 and 2.837 and 6.478 | Change in Ca5 fluorescence, individual experiments (CRC raw data) (human TRPV1; log concentration -7 (M)): 5.718 and 2.642 and 2.583 and 2.209 and 5.355 and 1.543 | Elevation of [Ca]i in HEK-293 TRPA1 cells compared with HEK-293 EV cells (human TRPA1; 10 µM (cinnamaldehyde 300 µM)): significantly greater | Change of Ca5 fluorescence, Mean ± SEM, TRPA1 (10 µM) (human TRPA1; 10 µM, HEK-293 TRPA1 cells, percentage of predrug baseline): 107 ± 50 % | TRPA1 activation at the highest concentration tested (human TRPA1; 30 µM): activated TRPA1 | TRPA1 response compared with the highest concentration of cinnamaldehyde (300 µM) (human TRPA1; 30 µM): did not differ | TRPA1 response, Mean± SEM (N) (human TRPA1; 30 µM, one-way ANOVA comparison with cinnamaldehyde 300 µM): 335± 60 | Emax ± SEM % TRPA1 (30 µM) (human TRPA1; highest tested concentration (30 µM) or derived from concentration-response curves (cinnamaldehyde)): 335 ± 35% | Change in Ca5 fluorescence, individual experiments (CRC raw data) (human TRPA1; log concentration -4.52288 (M)): 349.992 and 313.567 and 315.432 and 199.601 and 366.143 and 464.813 | Change in Ca5 fluorescence, individual experiments (CRC raw data) (human TRPA1; log concentration -5 (M)): 252.775 and 33.0558 and 3.468 and 15.2698 and 63.0111 and 272.344 | Change in Ca5 fluorescence, individual experiments (CRC raw data) (human TRPA1; log concentration -5.52288 (M)): 2.533 and 3.173 and 1.452 and 10.0203 and 10.0547 and 73.8394 | Change in Ca5 fluorescence, individual experiments (CRC raw data) (human TRPA1; log concentration -6 (M)): 2.6845 and 3.9598 and 1.663 and 5.882 and 4.143 and 4.307 | Change in Ca5 fluorescence, individual experiments (CRC raw data) (human TRPA1; log concentration -6.52288 (M)): 2.976 and 11.5941 and 1.922 and 8.318 and 8.221 and 6.083 | Change in Ca5 fluorescence, individual experiments (CRC raw data) (human TRPA1; log concentration -7 (M)): 8.586 and 11.8101 and 8.8764 and 6.208 and 4.123 and 2.766 | Change of Ca5 fluorescence, Mean ± SEM, EV (10 µM) (HEK-293 EV cells): 10 ± 3%
